Assay results reported in US20250276953A1, “SMALL MOLECULE SIRTUIN INHIBITORS AND USES THEREOF” (The Regents of the University of Michigan, priority 2022, published 2025).

Target: T1, SIRT5 (Homo sapiens (Human), UniProt Q9NXA8)
Experiment: Degradation of SIRT5 protein
Format: cell-based

T1 sequence (Q9NXA8 37-310): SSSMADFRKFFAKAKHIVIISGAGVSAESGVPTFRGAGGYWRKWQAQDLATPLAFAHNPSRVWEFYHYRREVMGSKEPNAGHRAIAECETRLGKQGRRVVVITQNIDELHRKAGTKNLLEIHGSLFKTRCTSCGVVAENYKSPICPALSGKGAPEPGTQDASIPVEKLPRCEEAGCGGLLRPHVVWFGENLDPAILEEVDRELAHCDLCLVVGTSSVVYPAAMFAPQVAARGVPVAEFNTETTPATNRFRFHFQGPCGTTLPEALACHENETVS

degradation of protein SIRT5 | Compound
degraded | CCOC(=O)c1ccc(Nc2nc(-c3ccc(NC(=O)CCCCNC(=O)COc4cccc5c4C(=O)N(C4CCC(=O)NC4=O)C5=O)cc3)cs2)cc1O (stereo not shown) [Compound 1-3, ethyl 4-((4-(4-(5-(2-((2-(2,6-dioxopiperidin-3-yl)-1,3-dioxoisoindolin-4-yl)oxy)acetamido)pentanamido)phenyl)thiazol-2-yl)amino)-2-hydroxybenzoate]

Tested on: Ewing sarcoma cell line A4573
Experiment: Growth inhibition of Ewing sarcoma cell line A4573
Format: cell-based

Compound | growth of Ewing sarcoma cells
CCOC(=O)c1ccc(Nc2nc(-c3ccc(NC(=O)CCCCNC(=O)COc4cccc5c4C(=O)N(C4CCC(=O)NC4=O)C5=O)cc3)cs2)cc1O (stereo not shown) [Compound 1-3, ethyl 4-((4-(4-(5-(2-((2-(2,6-dioxopiperidin-3-yl)-1,3-dioxoisoindolin-4-yl)oxy)acetamido)pentanamido)phenyl)thiazol-2-yl)amino)-2-hydroxybenzoate] | inhibited growth
CCOC(=O)c1ccc(Nc2nc(-c3ccc(NC(C)=O)cc3)cs2)cc1O [Compound 1-2, Ethyl 4-((4-(4-acetamidophenyl)thiazol-2-yl)amino)-2-hydroxybenzoate] | inhibited growth

Target: T1, SIRT5
Experiment: SIRT5 IC50 (Table I)
Format: biochemical

IC50 | Compound
35.6 ± 1.3 µM | CC(=O)Nc1cccc(-c2csc(NC(=S)Nc3ccc(C(=O)O)c(O)c3)n2)c1 [Compound 1-24, 4-(3-(4-(3-acetamidophenyl)thiazol-2-yl)thioureido)-2-hydroxybenzoic acid]
12.8 ± 0.48 µM | N#Cc1ccc(-c2csc(NC(=S)Nc3ccc(C(=O)O)c(O)c3)n2)cc1F [Compound 1-32, 4-(3-(4-(4-cyano-3-fluorophenyl)thiazol-2-yl)thioureido)-2-hydroxybenzoic acid]
8.22 ± 1.3 µM | O=C(O)c1ccc(NC(=S)Nc2nc(-c3ccc(F)c(S(=O)(=O)NCc4ccccc4)c3)cs2)cc1O [Compound 1-38, 4-(3-(4-(3-(N-benzylsulfamoyl)-4-fluorophenyl)thiazol-2-yl)thioureido)-2-hydroxybenzoic acid]
18.4 ± 0.28 µM | O=C(O)c1ccc(NC(=S)Nc2nc(-c3ccc(Cl)cc3)cs2)cc1O [Compound 1-27, 4-(3-(4-(4-chlorophenyl)thiazol-2-yl)thioureido)-2-hydroxybenzoic acid]
55.6 ± 5.49 µM | CC(=O)Nc1ccccc1-c1csc(NC(=S)Nc2ccc(C(=O)O)c(O)c2)n1 [Compound 1-25, 4-(3-(4-(2-acetamidophenyl)thiazol-2-yl)thioureido)-2-hydroxybenzoic acid]
14.8 ± 0.81 µM | N#Cc1ccc(-c2csc(NC(=S)Nc3ccc(C(=O)O)c(O)c3)n2)c(F)c1 [Compound 1-33, 4-(3-(4-(4-cyano-2-fluorophenyl)thiazol-2-yl)thioureido)-2-hydroxybenzoic acid]
16.1 ± 0.73 µM | O=C(O)c1ccc(NC(=S)Nc2nc(-c3ccc(F)c(F)c3)cs2)cc1O [Compound 1-30, 4-(3-(4-(3,4-difluorophenyl)thiazol-2-yl)thioureido)-2-hydroxybenzoic acid]
18.3 ± 0.95 µM | O=C(O)c1ccc(NC(=S)Nc2nc(-c3cccc(F)c3)cs2)cc1O [Compound 1-14, 4-(3-(4-(3-fluorophenyl)thiazol-2-yl)thioureido)-2-hydroxybenzoic acid]
11.4 ± 0.5 µM | N#Cc1ccc(-c2csc(NC(=S)Nc3ccc(C(=O)O)c(O)c3)n2)cc1 [Compound 1-22, 4-(3-(4-(4-cyanophenyl)thiazol-2-yl)thioureido)-2-hydroxybenzoic acid]
12.4 ± 0.58 µM | CC(=O)Nc1ccc(-c2csc(NC(=S)Nc3ccc(C(=O)O)c(O)c3)n2)cc1 [Compound 1-5, 4-(3-(4-(4-acetamidophenyl)thiazol-2-yl)thioureido)-2-hydroxybenzoic acid]
26.2 ± 2.54 µM | O=C(O)c1ccc(NC(=S)Nc2nc(-c3ccccc3F)cs2)cc1O [Compound 1-15, 4-(3-(4-(2-fluorophenyl)thiazol-2-yl)thioureido)-2-hydroxybenzoic acid]
29.2 ± 2.88 µM | COc1ccc(-c2csc(NC(=S)Nc3ccc(C(=O)O)c(O)c3)n2)cc1 [Compound 1-18, 2-hydroxy-4-(3-(4-(4-methoxyphenyl)thiazol-2-yl)thioureido)benzoic acid]
18.6 ± 0.23 µM | O=C(O)c1ccc(NC(=S)Nc2nc(-c3ccc(Br)cc3)cs2)cc1O [Compound 1-26, 4-(3-(4-(4-bromophenyl)thiazol-2-yl)thioureido)-2-hydroxybenzoic acid]
26.8 ± 1.42 µM | O=C(O)c1ccc(NC(=S)Nc2nc(-c3ccc(C(F)(F)F)cc3)cs2)cc1O [Compound 1-16, 2-hydroxy-4-(3-(4-(4-(trifluoromethyl)phenyl)thiazol-2-yl)thioureido)benzoic acid]
17.3 ± 0.28 µM | O=C(O)c1ccc(NC(=S)Nc2nc(-c3ccc(F)cc3)cs2)cc1O [Compound 1-13, 4-(3-(4-(4-fluorophenyl)thiazol-2-yl)thioureido)-2-hydroxybenzoic acid]
23.8 ± 2.71 µM | O=C(O)c1ccc(NC(=S)Nc2nc(-c3ccc([N+](=O)[O-])cc3F)cs2)cc1O [Compound 1-34, 4-(3-(4-(2-fluoro-4-nitrophenyl)thiazol-2-yl)thioureido)-2-hydroxybenzoic acid]
101 ± 8.48 µM | CC(=O)Nc1ccc(-c2csc(NC(=S)Nc3ccc(C(=O)O)cc3)n2)cc1 [Compound 1-7, 4-(3-(4-(4-acetamidophenyl)thiazol-2-yl)thioureido)benzoic acid]
38.8 ± 3.13 µM | CNS(=O)(=O)c1ccc(-c2csc(NC(=S)Nc3ccc(C(=O)O)c(O)c3)n2)cc1 [Compound 1-28, 2-hydroxy-4-(3-(4-(4-(N-methylsulfamoyl)phenyl)thiazol-2-yl)thioureido)benzoic acid]

IC50 | Compound
19.3 ± 0.93 µM | O=C(O)c1ccc(NC(=S)Nc2nc(-c3ccc(F)cc3F)cs2)cc1O [Compound 1-31, 4-(3-(4-(2,4-difluorophenyl)thiazol-2-yl)thioureido)-2-hydroxybenzoic acid]
4.3 ± 0.3 µM | O=C(O)c1ccc(NC(=S)Nc2nc(-c3ccc([N+](=O)[O-])cc3)cs2)cc1O [Compound 1-23, 2-hydroxy-4-(3-(4-(4-nitrophenyl)thiazol-2-yl)thioureido)benzoic acid]
42.5 ± 3.83 µM | O=C(O)c1ccc(NC(=S)Nc2nc(-c3ccc(O)cc3)cs2)cc1O [Compound 1-20, 2-hydroxy-4-(3-(4-(4-hydroxyphenyl)thiazol-2-yl)thioureido)benzoic acid]
32.8 ± 3.87 µM | O=C(O)c1ccc(NC(=S)Nc2nc(-c3cccc(O)c3)cs2)cc1O [Compound 1-21, 2-hydroxy-4-(3-(4-(3-hydroxyphenyl)thiazol-2-yl)thioureido)benzoic acid]
27.7 ± 1.02 µM | Cc1cccc(-c2csc(NC(=S)Nc3ccc(C(=O)O)c(O)c3)n2)c1 [Compound 1-11, 2-hydroxy-4-(3-(4-(m-tolyl)thiazol-2-yl)thioureido)benzoic acid]
26.1 ± 1.91 µM | CNS(=O)(=O)c1cccc(-c2csc(NC(=S)Nc3ccc(C(=O)O)c(O)c3)n2)c1 [Compound 1-29, 2-hydroxy-4-(3-(4-(3-(N-methylsulfamoyl)phenyl)thiazol-2-yl)thioureido)benzoic acid]
34 ± 2.18 µM | Cc1ccccc1-c1csc(NC(=S)Nc2ccc(C(=O)O)c(O)c2)n1 [Compound 1-12, 2-hydroxy-4-(3-(4-(o-tolyl)thiazol-2-yl)thioureido)benzoic acid]
24.9 ± 0.54 µM | O=C(O)c1ccc(NC(=S)Nc2nc(-c3ccc(F)c(S(=O)(=O)NC4CCCC4)c3)cs2)cc1O [Compound 1-37, 4-(3-(4-(3-(N-cyclopentylsulfamoyl)-4-fluorophenyl)thiazol-2-yl)thioureido)-2-hydroxybenzoic acid]
50.7 ± 5.64 µM | CC(=O)Nc1ccc(-c2csc(NC(=S)Nc3ccc(C(=O)O)cc3O)n2)cc1 [Compound 1-9, 4-(3-(4-(4-acetamidophenyl)thiazol-2-yl)thioureido)-3-hydroxybenzoic acid]
2.5 ± 0.21 µM | O=C(O)c1ccc(NC(=S)Nc2nc(-c3ccc([N+](=O)[O-])c(S(=O)(=O)NCc4ccccc4)c3)cs2)cc1O [Compound 1-39, 4-(3-(4-(3-(N-benzylsulfamoyl)-4-nitrophenyl)thiazol-2-yl)thioureido)-2-hydroxybenzoic acid]
24.3 ± 2.54 µM | O=C(O)c1ccc(NC(=S)Nc2nc(-c3cccc(C(F)(F)F)c3)cs2)cc1O [Compound 1-17, 2-hydroxy-4-(3-(4-(3-(trifluoromethyl)phenyl)thiazol-2-yl)thioureido)benzoic acid]
23.4 ± 0.92 µM | Cc1ccc(-c2csc(NC(=S)Nc3ccc(C(=O)O)c(O)c3)n2)cc1 [Compound 1-10, 2-hydroxy-4-(3-(4-(p-tolyl)thiazol-2-yl)thioureido)benzoic acid]
14.9 ± 1.35 µM | O=C(O)c1ccc(NC(=S)Nc2nc(-c3ccc([N+](=O)[O-])c(F)c3)cs2)cc1O [Compound 1-35, 4-(3-(4-(3-fluoro-4-nitrophenyl)thiazol-2-yl)thioureido)-2-hydroxybenzoic acid]
26.4 ± 0.83 µM | CC(=O)Nc1ccc(-c2csc(Nc3ccc(C(=O)O)c(O)c3)n2)cc1 [Compound 1-1, 4-((4-(4-acetamidophenyl)thiazol-2-yl)amino)-2-hydroxybenzoic acid]
41.6 ± 3.79 µM | COc1cccc(-c2csc(NC(=S)Nc3ccc(C(=O)O)c(O)c3)n2)c1 [Compound 1-19, 2-hydroxy-4-(3-(4-(3-methoxyphenyl)thiazol-2-yl)thioureido)benzoic acid]
11.6 ± 0.74 µM | O=C(O)c1ccc(NC(=S)Nc2nc(-c3ccc(F)c([N+](=O)[O-])c3)cs2)cc1O [Compound 1-36, 4-(3-(4-(4-fluoro-3-nitrophenyl)thiazol-2-yl)thioureido)-2-hydroxybenzoic acid]
55.9 ± 5.42 µM | CC(=O)Nc1ccc(-c2csc(NC(=S)Nc3ccc(O)c(C(=O)O)c3)n2)cc1 [Compound 1-8, 5-(3-(4-(4-acetamidophenyl)thiazol-2-yl)thioureido)-2-hydroxybenzoic acid]

Tested on: Ewing sarcoma cell line A673
Experiment: Growth inhibition of Ewing sarcoma cell line A673
Format: cell-based

Compound | growth of Ewing sarcoma cells
CCOC(=O)c1ccc(Nc2nc(-c3ccc(NC(=O)CCCCNC(=O)COc4cccc5c4C(=O)N(C4CCC(=O)NC4=O)C5=O)cc3)cs2)cc1O (stereo not shown) [Compound 1-3, ethyl 4-((4-(4-(5-(2-((2-(2,6-dioxopiperidin-3-yl)-1,3-dioxoisoindolin-4-yl)oxy)acetamido)pentanamido)phenyl)thiazol-2-yl)amino)-2-hydroxybenzoate] | inhibited growth
CCOC(=O)c1ccc(Nc2nc(-c3ccc(NC(C)=O)cc3)cs2)cc1O [Compound 1-2, Ethyl 4-((4-(4-acetamidophenyl)thiazol-2-yl)amino)-2-hydroxybenzoate] | inhibited growth
